Assay [1] has as its system MRC-5 fibroblasts. Put plainly: MTT cellular proliferation assay, MRC-5 fibroblasts. The assay is classed as cell-based, human. Particulars: Table 3, normal cells, 72 h, MTT, read-out: IC50 MRC-5 fibroblasts. The method, then: (§1) The final concentration of the compounds was 0.39-50 μM. […] […] After this incubation, 0.01 mL of MTT was added to each well and the plates incubated for 2 h at 37° C. The cells were then solubilised by adding 0.1 mL of 10% SDS-50% isobutanol in 0.01 M HCl and the plates then read at 570 nm on a scanning multiwell spectrophotometer (Titertek Multiscan; Beckman Instruments Inc, California). MTT colour formation was directly proportional to the number of viable cells.
The MRC-5 cell type is a normal human lung fibroblast cell strain that is mortal and senesces after a number of passages in vitro. The SK-N-MC neuroepithelioma cell type is immortal.
Dp2mT served as a negative control.
In general terms: Tetrazolium dyes change colour on reduction, which living cells bring about.

The subject of assay [2] is NCI H2452 mesothelioma. Put plainly: MTT cellular proliferation assay, NCI H2452. As to conditions: 72 h, 3 experiments. The assay is classed as cell-based. The method, then: as §1
(§2) At the end of the incubation period, cell density was determined by the MTT assay (described above).

In assay [3] the test system is IMR-32 Neuroblastoma. Description: MTT cellular proliferation assay, IMR-32. In kind it is cell-based. Particulars: 72 h, 1 experiment. How it is done: as §1, §2
Assay [4] relates to HEP G2 Hepatoma. Put plainly: MTT cellular proliferation assay, HEP G2. In kind it is cell-based. Particulars: 72 h, 1 experiment. How it is done: as §1, §2
Assay [5] relates to M109 carcinoma cells. Put plainly: 59Fe mobilisation from prelabelled M109 cells. The assay is classed as cell-based, mouse. As to conditions: 3 h, control medium 8±1%. The method, then: (§3) The ability of the compound Dp44mT to inhibit the growth of M109 lung carcinoma cells in mice was assessed. Studies were performed using M109 carcinoma cells in culture to determine the effect of Dp44mT on mobilising ^59Fe from these cells (FIG. 11C) and inhibiting ^59Fe uptake from ^59Fe-Tf (FIG. 11D). As internal controls, cells were incubated with DFO and 311. The effect of compound concentration on increasing ^59Fe mobilisation from M109 cells was examined by labelling cells with ^59Fe-Tf (0.75 μM) for 3 h at 37° C. followed by washing and reincubation with the respective compounds (0.2-25 μM) for 3 h at 37° C. (FIG. 11C). […] In contrast, 311 increased cellular ^59Fe release from 8±1% (control medium) to […] at 5 μM (FIG. 11C). For Dp44mT ^59Fe release plateaued at 2 μM, resulting in the efflux of 48±2% of ^59Fe (FIG. 11C).

For assay [6], the system named is H69AR lung cancer. Put plainly: MTT cellular proliferation assay, H69AR. The assay is classed as cell-based. Particulars: 0-50 μM, 72 h, 1 experiment. The method, then: as §1, §2
Assay [7] concerns MCF-7 breast cancer cells. Put plainly: MTT cellular proliferation assay, MCF-7. In kind it is cell-based, human.
The test system of assay [8] is Ndrg1. Put plainly: Ndrg1 expression in MCF-7 cells (Western blotting). In kind it is cell-based, human. Particulars: 25 μM, 24 h, MCF-7 cells (FIG. 16). How it is done: FIG. 16. […] The expression of Ndrg1 and β-actin protein levels were assessed by Western blotting.
MCF-7 cells were incubated for 24 h with a range of metal ion chelators. […] Dp2mT was used as a negative control, […]
(In general: A western blot detects proteins with antibodies after separation by electrophoresis.)

In assay [9] the test system is M109 carcinoma cells. Put plainly: 59Fe uptake from 59Fe-Tf by M109 cells. The assay is classed as cell-based, mouse. The method, then:
as §3
At 1 μM, 311 reduced ^59Fe uptake to 40±4% of the control. […] Dp44mT had similar activity to 311 up to a concentration of 5 μM, where it reduced ^59Fe uptake to 30±1% of the control (FIG. 11D).

The test system of assay [10] is SK-N-MC neuroepithelioma cells. Description: MTT cellular proliferation assay, SK-N-MC. In kind it is cell-based, human.
The subject of assay [11] is DU 145 prostate cancer. Description: MTT cellular proliferation assay, DU 145. Particulars: 72 h, 2 experiments. The assay is classed as cell-based. How it is done:
as §1, §2

Assay [12] relates to SK-Mel-28 melanoma cells. Put plainly: MTT cellular proliferation assay, SK-Mel-28. The assay is classed as cell-based, human.
Assay [13] concerns SK-N-MC neuroepithelioma cells. Description: 59Fe mobilization from prelabelled SK-N-MC neuroepithelioma cells. The assay is classed as cell-based, human. As to conditions: chelators 25 μM, 3 h at 37° C.; media alone released 5% (FIG. 11A). How it is done: The effect of chelators on ^59Fe release from prelabelled cells was studied using standard procedures.^18 Cells were prelabelled with ^59Fe-transferrin (0.75 μM) for 3 h at 37° C. […] The overlying medium was then removed and placed into γ-counting tubes. The cells were removed from the petri dishes in 1 ml of BSS using a plastic spatula and transferred to a separate set of γ-counting tubes.
The ability of the compounds to mobilise ^59Fe from SK-N-MC neuroepithelioma cells was assessed after a 3 h labelling period with ^59Fe-Tf (0.75 μM) at 37° C. […]
DFO and 311 were used as internal standards.

Like-named read-outs stand apart in the source and are kept apart here.

On to `CN(C)C(=S)NN=C(c1ccccn1)c1ccccn1` [Dp44mT, di-2-pyridylketone 4,4-dimethyl-3-thiosemicarbazone], for which the IC50 in [1] is greater than 25 µM; in assay [2] (0-50 μM), 0.01 µM; in [3] (0-50 μM), 0.01 µM; in assay [4] (0-50 μM), 1.36 µM; in [6], 0.05 µM; in [7] (Table 3, 72 h, MTT, mean ± SD, read-out: IC50 MCF-7 breast cancer), 0.06 ± 0.01 µM. For the same molecule, the 50% inhibitory concentration (IC50) in [7] (values given in Example 8, read-out: IC50, anti-proliferative activity in MCF-7 cells) was found to be 0.1 µM; in [10] (Table 3, 0-25 μM, 72 h, MTT, mean ± SD, read-out: IC50 SK-N-MC neuroepithelioma), 0.03 ± 0.01 µM; in assay [11] (0-50 μM), 0.06 µM; in assay [12] (Table 3, 72 h, mean ± SD) it was 0.06 ± 0.03 µM. Besides, the “efflux of 59Fe (plateau)” value in assay [5] (2 μM) is reported as 48±2%. In assay [8], the “up-regulation of Ndrg1” value was “markedly increased”. The 59Fe uptake in assay [9] (5 μM) is recorded as 30±1 % of the control. Besides, in [13], the “efflux/mobilisation of total cellular 59Fe” value is 47%.
As for `CC(=O)N(O)CCCCCNC(=O)CCC(=O)N(O)CCCCCNC(=O)CCC(=O)N(O)CCCCCN` [DFO, desferrioxamine], the IC50 is greater than 25 µM in [1] (Homo sapiens, MRC5); 32.3 µM in assay [2] (Homo sapiens, NCI-H2452, 0-50 μM); 9.38 µM in assay [3] (Homo sapiens, IMR-32, 0-50 μM); 18.7 µM in [4] (Homo sapiens, HepG2, 0-50 μM); greater than 50 µM in assay [6] (Homo sapiens, H69AR); 14 ± 9 µM in [7] (Homo sapiens, MCF7, 72 h, Table 3, 72 h, MTT, mean ± SD, read-out: IC50 MCF-7 breast cancer). For the same molecule, the concentration for half-maximal inhibition (IC50) was 20 µM in assay [7] (Homo sapiens, MCF7, values given in Example 8 text, read-out: IC50, anti-proliferative activity in MCF-7 cells); 5 µM in [10] (Homo sapiens, SK-N-MC, 72 h, Table 3, 0-25 μM, 72 h, MTT, mean ± SD, read-out: IC50 SK-N-MC neuroepithelioma); greater than 50 µM in assay [10] (Homo sapiens, SK-N-MC, 90 h, Table 2, MTT assay, 90 h incubation, Mean ± SD, 4 experiments, read-out: IC50 Values of Chelators); 15.8 µM in assay [11] (Homo sapiens, DU-145, 0-50 μM); 15 ± 7 µM in assay [12] (Homo sapiens, SK-MEL-28, 72 h, Table 3, mean ± SD). The “59Fe released from cells” value in assay [5] (25 μM) was 12±1%. Further, the “up-regulation of Ndrg1” value in assay [8] is reported as “no effect”. Besides, the “inhibition of 59Fe uptake” value in [9] (0.2-25 μM (FIG. 11D)) is on record as “little effect”. Moreover, in assay [13], the “efflux/mobilisation of total cellular 59Fe” value came out at 11%.

By IC50 is commonly meant the concentration that inhibits the measured activity by half.

These data come from patent US20060252798A1, “Metal ion chelators and therapeutic use thereof” (priority 2003, published 2006).
